“And” between values parts separate entries of the source, which are not always exact repeats. Equal entries are not always repeated.
Experiment: LNP average particle size and polydispersity by dynamic light scattering
Type: physicochemical
Settings: sgRNA:mRNA 1:2; for Number mean (average particle size) / PDI (polydispersity index) / Z-avg (average particle size): LNP with 50% ionizable lipid, 3% C13 Ether (LNP #1, Compound 53: 3% PEG2K-DMG instead)
Method: Dynamic Light Scattering (“DLS”) is used to characterize the polydispersity index (“pdi” or “PDI”) and size of the LNPs of the present disclosure. DLS measures the scattering of light that results from subjecting a sample to a light source. PDI, as determined from DLS measurements, represents the distribution of particle size (around the mean particle size) in a population, with a perfectly uniform population having a PDI of zero.
LNP compositions are analyzed for average particle size, polydispersity index (pdi), total RNA content, encapsulation efficiency of RNA, and zeta potential. LNP compositions may be further characterized by lipid analysis, AF4-MALS, NTA, and/or cryo-EM.
Average particle size and polydispersity are measured by dynamic light scattering (DLS) using a Malvern Zetasizer DLS instrument. LNP samples were diluted with PBS buffer prior to being measured by DLS. Z-average diameter (“Z-avg”) which is an intensity-based measurement of average particle size was reported along with number average diameter (“number mean”) and PDI. A Malvern Zetasizer instrument is also used to measure the zeta potential of the LNP. Samples are diluted 1:17 (50 μL into 800 μL) in 0.1×PBS, pH 7.4 prior to measurement.
In vivo editing efficiency for materials delivered with formulations including various amine lipid (or ionizable lipid) compounds in Experiments 1 through 14 as described in Tables 3 and 4 was assessed. Editing was measured using G000534 (SEQ ID NO: 5) which targets the rat TTR gene. Lipids described above were assessed for efficacy through in vivo editing experiments. LNPs were formulated at a 1:2 w/w ratio of sgRNA (SEQ ID NO: 5) and Cas9 mRNA (SEQ ID NO: 3). In Experiments 1 through 13, lipid components of the LNP are formulated in a molar ratio of 50% ionizable lipid, 38% cholesterol, 9% DSPC, and 3% PEG2K-DMG. In Experiment 14, lipid components of the LNP are formulated in a molar ratio of 50% ionizable lipid, 38% cholesterol, 9% DSPC, and 3% C13 Ether. The final LNPs used in different in vivo editing experiments were characterized to determine the encapsulation efficiency (% E), polydispersity index (PDI), and average particle size (Z-avg and number mean) according to the analytical methods provided above. The pKa values of each of the following ionizable lipids were also measured to be in the range of about 5.8 to about 7.6.
In vivo editing efficiency for materials delivered with formulations including various combinations of amine lipid (or ionizable lipid) and PEG lipid compounds was assessed as described in Tables 5 and 6. Editing was measured using G000534 (SEQ ID NO: 5) which targets the rat TTR gene. Lipids described above were assessed for efficacy through in vivo editing experiments. LNPs were formulated at a 1:2 w/w ratio of sgRNA (SEQ ID NO: 5) and Cas9 mRNA (SEQ ID NO:3). Lipid components of the LNP are formulated in a molar ratio of 50% ionizable lipid, 38% cholesterol, 9% DSPC, and 3% of various PEG lipids (e.g., PEG2K-DMG, C13 Ether, C14 Ether). The final LNPs used in different in vivo editing experiments were characterized to determine the encapsulation efficiency (% E), polydispersity index (PDI), and average particle size (Z-avg and number mean) according to the analytical methods provided above. The pKa values of each of the following ionizable lipids were also measured to be in the range of about 5.8 to about 7.6.
In vivo editing efficiency for materials delivered with formulations including various amine lipid (or ionizable lipid) compounds as described in Tables 7 and 8 was assessed. Editing was measured using G000534 (SEQ ID NO: 5) which targets the rat TTR gene. Lipids described above were assessed for efficacy through in vivo editing experiments. LNPs were formulated at a 1:2 w/w ratio of sgRNA (SEQ ID NO: 5) and Cas9 mRNA (SEQ ID NO: 3). Lipid components of the LNP were formulated in a molar ratio of 50% ionizable lipid, 38% cholesterol, 9% DSPC, and 3% C13 Ether. […]

[1] = Table 3, Experiments 1-13, LNP 50% ionizable lipid, 38% cholesterol, 9% DSPC, 3% PEG2K-DMG
[2] = Table 3, Experiment 14, LNP with 3% C13 Ether

SMILES | Number mean [1] | PDI [1] | Z-avg [1] | also measured
CCCCCCCCC(CCCCCCCC)OC(=O)CCCC(=O)OCC(COC(=O)CCCC(=O)OC(CCCCCCCC)CCCCCCCC)COC(=O)OCCCN1CCCCC1 [Compound 32, di(heptadecan-9-yl) O,O′-(2-((((3-(piperidin-1-yl)propoxy)carbonyl)oxy)methyl)propane-1,3-diyl) diglutarate] | 59 nm | 0.008 | 63 nm | –
CCCCCCC(CCCCCC)OC(=O)CCCC(=O)OCC(COC(=O)CCCC(=O)OC(CCCCCC)CCCCCC)COC(=O)NCCN(CC)CC [Compound 37, O,O′-(2-((((2-(diethylamino)ethyl)carbamoyl)oxy)methyl)propane-1,3-diyl) di(tridecan-7-yl) diglutarate] | 71 nm | 0.014 | 78 nm | –
CCCCCCCCCOC(=O)CCCCCCCN(CCO)CCCCCCCC(=O)OC(CCCCCCCC)CCCCCCCC [Compound 55] | 65 nm | 0.05 | 77 nm | –
CCCCCCCCC(CCCCCCCC)CC(=O)OCCC(=O)OCC(COC(=O)CCCC(=O)OC(CCCCCCCC)CCCCCCCC)COC(=O)NCCN(CC)CC (stereo not drawn) [Compound 63, 3-(((2-(diethylamino)ethyl)carbamoyl)oxy)-2-(((3-((3-octylundecanoyl)oxy)propanoyl)oxy)methyl)propyl heptadecan-9-yl Glutarate] | – | – | – | Number mean (Table 7, LNP with 3% C13 Ether): 73 nm; PDI (Table 7, LNP with 3% C13 Ether): 0.02; Z-avg (Table 7, LNP with 3% C13 Ether): 80 nm
CCCCCCCCC(CCCCCCCC)OC(=O)CCCCCC(=O)OCC(COC(=O)CCCCCC(=O)OC(CCCCCCCC)CCCCCCCC)COC(=O)OCCCN1CCCC1 [Compound 64, 7,7′-di(heptadecan-9-yl) O′1,O1-(2-((((3-(pyrrolidin-1-yl)propoxy)carbonyl)oxy)methyl)propane-1,3-diyl) di(heptanedioate)] | – | – | – | Number mean (average particle size) (38% cholesterol, 9% DSPC): 52 nm; PDI (polydispersity index) (38% cholesterol, 9% DSPC): 0.01; Z-avg (average particle size) (38% cholesterol, 9% DSPC): 63 nm
CCCCCCCCC(CCCCCCCC)OC(=O)CCCCCCC(=O)OCC(COC(=O)CCCCCCC(=O)OC(CCCCCCCC)CCCCCCCC)COC(=O)OCCCN1CCCC1 [Compound 65, 8,8′-di(heptadecan-9-yl) O′1,O1-(2-((((3-(pyrrolidin-1-yl)propoxy)carbonyl)oxy)methyl)propane-1,3-diyl) di(octanedioate)] | – | – | – | Number mean (average particle size) (38% cholesterol, 9% DSPC): 62 nm; PDI (polydispersity index) (38% cholesterol, 9% DSPC): 0.01; Z-avg (average particle size) (38% cholesterol, 9% DSPC): 74 nm
CCCCCCCCOC(CCC(=O)OCC(COC(=O)CCC(OCCCCCCCC)OCCCCCCCC)COC(=O)OCCCN(CC)CC)OCCCCCCCC [Compound 1, 2-((((3-(diethylamino)propoxy)carbonyl)oxy)methyl)propane-1,3-diyl bis(4,4-bis(octyloxy)butanoate)] | 70 nm | 0.06 | 80 nm | –
CCCCCCCCC(CCCCCCCC)OC(=O)CCCCCCC(=O)OCC(COC(=O)CCCCCCC(=O)OC(CCCCCCCC)CCCCCCCC)COC(=O)NCCCN(CC)CC [Compound 61] | 39 nm | 0.16 | 74 nm | –
CCCCCCCCC(CCCCCCCC)OC(=O)CCCCCCC(=O)OCC(CC)(COC(=O)CCCCCCC(=O)OC(CCCCCCCC)CCCCCCCC)COC(=O)NCCN(CC)CC [Compound 66, O′1,O1-(2-((((2-(diethylamino)ethyl)carbamoyl)oxy)methyl)-2-ethylpropane-1,3-diyl) 8,8′-di(heptadecan-9-yl) di(octanedioate)] | – | – | – | Number mean (average particle size) (38% cholesterol, 9% DSPC): 64 nm; PDI (polydispersity index) (38% cholesterol, 9% DSPC): 0.01; Z-avg (average particle size) (38% cholesterol, 9% DSPC): 78 nm
CCCCCCCCC(CCCCCCCC)OC(=O)CCCC(=O)OCC(COC(=O)CCCC(=O)OC(CCCCCCCC)CCCCCCCC)OC(=O)NCCN(CC)CC [Compound 35, O,O′-(2-(((2-(diethylamino)ethyl)carbamoyl)oxy)propane-1,3-diyl) di(heptadecan-9-yl) diglutarate] | – | – | – | Number mean [2]: 67 nm; PDI [2]: 0.019; Z-avg [2]: 76 nm
CCCCCCCCC(CCCCCCCC)OC(=O)CCCCCCC(=O)OCC(CC)(COC(=O)CCCCCCC(=O)OC(CCCCCCCC)CCCCCCCC)COC(=O)OCCCN1CCCC1 [Compound 67, O′1,O1-(2-ethyl-2-((((3-(pyrrolidin-1-yl)propoxy)carbonyl)oxy)methyl)propane-1,3-diyl) 8,8′-di(heptadecan-9-yl) di(octanedioate)] | – | – | – | Number mean (average particle size) (38% cholesterol, 9% DSPC): 53 nm; PDI (polydispersity index) (38% cholesterol, 9% DSPC): 0.03; Z-avg (average particle size) (38% cholesterol, 9% DSPC): 65 nm

The next lines start with results.

Number mean [1] | PDI [1] | Z-avg [1] | SMILES | also measured
87 nm | 0.04 | 99 nm | CCCCC/C=C\C/C=C\CCCCCCCC(=O)OCC(CCCCC(=O)OC(CCCC)CCCC)COC(=O)OCCCN(C)CC (stereo not drawn) [Compound 13, 2-((((3-(ethyl(methyl)amino)propoxy)carbonyl)oxy)methyl)-7-(nonan-5-yloxy)-7-oxoheptyl (9Z,12Z)-octadeca-9,12-dienoate] | –
69 nm | 0.01 | 75 nm | CCCCC/C=C\C/C=C\CCCCCCCC(=O)OCC(CCCCCCC(=O)OC(CCCCCC)CCCCCC)COC(=O)OCCCN(CC)CC (stereo not drawn) [Compound 18, 2-((((3-(diethylamino)propoxy)carbonyl)oxy)methyl)-9-oxo-9-(tridecan-7-yloxy)nonyl (9Z,12Z)-octadeca-9,12-dienoate] | –
67 nm | 0.03 | 74 nm | CCCCC/C=C\C/C=C\CCCCCCCC(=O)OCC(CCCCC(=O)OC(CCCCCC)CCCCCC)COC(=O)OCCCN(CC)CC (stereo not drawn) [Compound 17, 2-((((3-(diethylamino)propoxy)carbonyl)oxy)methyl)-7-oxo-7-(tridecan-7-yloxy)heptyl (9Z,12Z)-octadeca-9,12-dienoate] | –
61 nm and 65 nm and 62 nm | 0.03 | 68 nm and 73 nm | CCCCC/C=C\C/C=C\CCCCCCCC(=O)OCC(CCCCCCCCC(=O)OC(CCCCCCCC)CCCCCCCC)COC(=O)OCCCN(CC)CC (stereo not drawn) [Compound 9, 2-((((3-(diethylamino)propoxy)carbonyl)oxy)methyl)-11-(heptadecan-9-yloxy)-11-oxoundecyl (9Z,12Z)-octadeca-9,12-dienoate] | –
59 nm | 0.003 | 64 nm | CCCCCCCCC(CCCCCCCC)OC(=O)CCCC(=O)OCC(COC(=O)CCCC(=O)OC(CCCCCCCC)CCCCCCCC)COC(=O)OCCCN(C)C [Compound 31, O,O′-(2-((((3-(dimethylamino)propoxy)carbonyl)oxy)methyl)propane-1,3-diyl) di(heptadecan-9-yl) diglutarate] | –
83 nm | 0.04 | 90 nm | CCCCC/C=C\C/C=C\CCCCCCCC(=O)OCC(CCCCCCCCC(=O)OC(CCCCCCCC)CCCCCCCC)COC(=O)NCCN(CC)CC (stereo not drawn) [Compound 10, 2-((((2-(diethylamino)ethyl)carbamoyl)oxy)methyl)-11-(heptadecan-9-yloxy)-11-oxoundecyl (9Z,12Z)-octadeca-9,12-dienoate] | –
86 nm and 74 nm | 0.02 | 90 nm and 81 nm | CCCCC/C=C\C/C=C\CCCCCCCCC(COC(=O)CCCCCC(=O)OC(CCCCCCCC)CCCCCCCC)COC(=O)NCCN(CC)CC (stereo not drawn) [Compound 23, 1-((11Z,14Z)-2-((((2-(diethylamino)ethyl)carbamoyl)oxy)methyl)icosa-11,14-dien-1-yl) 7-(heptadecan-9-yl) heptanedioate] | –
